Reference: US20120324604A1, “PESTICIDAL MIXTURES CONTAINING ISOXAZOLINE DERIVATIVES AND A FUNGICIDE” (priority 2010, published 2012)

Key:
Format in all cases: cell-based
[1] = system: Mycosphaerella arachidis (syn. Cercospora arachidicola); assay: Mycosphaerella arachidis (Brown Leaf Spot of Groundnut) growth inhibition, microtiter plate, photometric; conditions: alone
Method: Mycosphaerella arachidis (syn. Cercospora arachidicola), Brown Leaf Spot of Groundnut (Peanut):
(§1) Conidia of the fungus from cryogenic storage were directly mixed into nutrient broth (potato dextrose broth). After placing a (DMSO) solution of the test compounds into a microtiter plate (96-well format) the nutrient broth containing the fungal spores was added.

Pythium ultimum = Pythium ultimum (Damping Off) growth inhibition, microtiter plate, photometric
Method: Pythium ultimum (Damping Off):
Mycelial fragments of the fungus, prepared from a fresh liquid culture, were directly mixed into nutrient broth (potato dextrose broth). After placing a (DMSO) solution of the test compounds into a microtiter plate (96-well format) the nutrient broth containing the fungal spores was added.

Gaeumannomyces graminis = Gaeumannomyces graminis growth inhibition, microtiter plate, photometric
Method: Mycelial fragments of the fungus from cryogenic storage were directly mixed into nutrient broth (potato dextrose broth). After placing a (DMSO) solution of the test compounds into a microliter plate (96-well format) the nutrient broth containing the fungal spores was added.

Rhizoctonia solani = Rhizoctonia solani (Foot Rot, Damping-Off) growth inhibition, microtiter plate, photometric; conditions: applied alone
Method: Rhizoctonia solani (Foot Rot, Damping-Off):
Mycelial fragments of the fungus from cryogenic storage were directly mixed into nutrient broth (potato dextrose broth). After placing a (DMSO) solution of the test compounds into a microtiter plate (96-well format) the nutrient broth containing the fungal spores was added.

Fusarium culmorum = Fusarium culmorum (Root Rot) growth inhibition, microtiter plate, photometric; conditions: single compound, 48 hrs, 24° C.
Method: Fusarium culmorum (Root Rot):
as §1

[2] = system: Glomerella lagenarium (syn. Colletotrichum lagenarium); assay: Glomerella lagenarium (Anthracnose of Cucurbits) growth inhibition, microtiter plate, photometric; conditions: alone
Method: Glomerella lagenarium (syn. Colletotrichum lagenarium), Anthracnose of Cucurbits:
as §1

Septoria tritici = Septoria tritici (Leaf Blotch) growth inhibition, microtiter plate, photometric; conditions: for AVERAGE DEAD IN %: alone; for AVERAGE DEAD IN % A6: A6 alone
Method: Septoria tritici (Leaf Blotch):
as §1

[3] = single compound at 0.078125 ppm AI
[4] = single compound at 0.15625 ppm AI
[5] = single compound at 0.3125 ppm AI
[6] = single compound at 0.625 ppm AI

Cc1cc(C2=NOC(c3cc(Cl)cc(Cl)c3)(C(F)(F)F)C2)ccc1C(=O)NC1C[S+]([O-])C1 (stereo not drawn) [A6]
0%: AVERAGE DEAD IN % ([1]; 0.0390625 PPM AI) | AVERAGE DEAD IN % ([1]; 0.078125 PPM AI) | AVERAGE DEAD IN % ([1]; 0.15625 PPM AI) | AVERAGE DEAD IN % ([1]; 0.3125 PPM AI) | AVERAGE DEAD IN % ([1]; 0.625 PPM AI) | AVERAGE DEAD IN % ([1]; 1.25 PPM AI) | AVERAGE DEAD IN % ([1]; 2.5 PPM AI) | AVERAGE DEAD IN % ([1]; 5 PPM AI) | AVERAGE DEAD IN % ([1]; 10 PPM AI) | AVERAGE DEAD IN % ([1]; 20 PPM AI) | AVERAGE DEAD IN % (Pythium ultimum; [3]) | AVERAGE DEAD IN % (Pythium ultimum; [4]) | AVERAGE DEAD IN % (Pythium ultimum; [5]) | AVERAGE DEAD IN % (Pythium ultimum; [6]) | AVERAGE DEAD IN % (Pythium ultimum; single compound at 1.25 ppm AI) | AVERAGE DEAD IN % (Pythium ultimum; single compound at 2.5 ppm AI) | AVERAGE DEAD IN % (Pythium ultimum; single compound at 5 ppm AI) | AVERAGE DEAD IN % (Pythium ultimum; single compound at 10 ppm AI) | AVERAGE DEAD IN % (Pythium ultimum; single compound at 20 ppm AI) | AVERAGE DEAD IN % (Gaeumannomyces graminis; single compound at 0.0390625 ppm AI) | AVERAGE DEAD IN % (Gaeumannomyces graminis; [3]) | AVERAGE DEAD IN % (Gaeumannomyces graminis; [4]) | AVERAGE DEAD IN % (Gaeumannomyces graminis; [5]) | AVERAGE DEAD IN % (Gaeumannomyces graminis; [6]) | AVERAGE DEAD IN % (Gaeumannomyces graminis; single compound at 1.25 ppm AI) | AVERAGE DEAD IN % (Gaeumannomyces graminis; single compound at 2.5 ppm AI) | AVERAGE DEAD IN % (Gaeumannomyces graminis; single compound at 5 ppm AI) | AVERAGE DEAD IN % (Gaeumannomyces graminis; single compound at 10 ppm AI) | AVERAGE DEAD IN % (Gaeumannomyces graminis; single compound at 20 ppm AI) | AVERAGE DEAD IN % (Rhizoctonia solani; 0.0390625 ppm AI) | AVERAGE DEAD IN % (Rhizoctonia solani; 0.078125 ppm AI) | AVERAGE DEAD IN % (Rhizoctonia solani; 0.15625 ppm AI) | AVERAGE DEAD IN % (Rhizoctonia solani; 0.3125 ppm AI) | AVERAGE DEAD IN % (Rhizoctonia solani; 0.625 ppm AI) | AVERAGE DEAD IN % (Rhizoctonia solani; 1.25 ppm AI) | AVERAGE DEAD IN % (Rhizoctonia solani; 2.5 ppm AI) | AVERAGE DEAD IN % (Rhizoctonia solani; 5 ppm AI) | AVERAGE DEAD IN % (Rhizoctonia solani; 10 ppm AI) | AVERAGE DEAD IN % (Rhizoctonia solani; 20 ppm AI) | AVERAGE DEAD IN % (Fusarium culmorum; 2.5 PPM AI) | AVERAGE DEAD IN % (Fusarium culmorum; 5 PPM AI) | AVERAGE DEAD IN % (Fusarium culmorum; 10 PPM AI) | AVERAGE DEAD IN % (Fusarium culmorum; 20 PPM AI) | AVERAGE DEAD IN % ([2]; 0.078125 ppm AI) | AVERAGE DEAD IN % ([2]; 0.15625 ppm AI) | AVERAGE DEAD IN % ([2]; 2.5 ppm AI) | AVERAGE DEAD IN % ([2]; 5 ppm AI) | AVERAGE DEAD IN % ([2]; 10 ppm AI) | AVERAGE DEAD IN % ([2]; 20 ppm AI) | AVERAGE DEAD IN % (Septoria tritici; 0.3125 ppm AI) | AVERAGE DEAD IN % (Septoria tritici; 0.625 ppm AI) | AVERAGE DEAD IN % (Septoria tritici; 1.25 ppm AI) | AVERAGE DEAD IN % (Septoria tritici; 2.5 ppm AI) | AVERAGE DEAD IN % (Septoria tritici; 5 ppm AI) | AVERAGE DEAD IN % (Septoria tritici; 10 ppm AI) | AVERAGE DEAD IN % (Septoria tritici; 20 ppm AI) | AVERAGE DEAD IN % A6 (Septoria tritici; 0.0390625 ppm AI) | AVERAGE DEAD IN % A6 (Septoria tritici; 0.078125 ppm AI) | AVERAGE DEAD IN % A6 (Septoria tritici; 0.15625 ppm AI) | AVERAGE DEAD IN % A6 (Septoria tritici; 0.3125 ppm AI) | AVERAGE DEAD IN % A6 (Septoria tritici; 0.625 ppm AI) | AVERAGE DEAD IN % A6 (Septoria tritici; 1.25 ppm AI) | AVERAGE DEAD IN % A6 (Septoria tritici; 2.5 ppm AI) | AVERAGE DEAD IN % A6 (Septoria tritici; 5 ppm AI) | AVERAGE DEAD IN % A6 (Septoria tritici; 10 ppm AI) | AVERAGE DEAD IN % A6 (Septoria tritici; 20 ppm AI)
